# Data as given in PubChem BioAssay (NCI).
#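 Grown in 96-well plates, cells were treated for 48 hours with each compound at five concentrations. Insufficient inhibition: endpoint recorded as highest concentration tested. Here, GI50 denotes the concentration required for 50% inhibition of growth. The concentration for full growth arrest is given as TGI.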
# Assays:
# Assay in all cases: NCI tumour cell line growth inhibition, 48 h
# [1] = test system: DLD-1 colon
# [2] = test system: M19-MEL melanoma
# [3] = test system: DMS 273 small cell lung
# [4] = test system: DMS 114 small cell lung
# [5] = test system: KM20L2 colon
# [6] = test system: MDA-MB-231 breast
# [7] = test system: BT-549 breast
# [8] = test system: T-47D breast
# [9] = test system: DU-145 prostate
# [10] = test system: MDA-MB-435
# [11] = test system: HS 578T breast
# [12] = test system: NCI/ADR-RES ovarian
# [13] = test system: XF 498 CNS
SMILES,TGI [1],TGI [2],TGI [3],TGI [4],TGI [5],GI50 [6],TGI [6],GI50 [7],TGI [7],GI50 [8],TGI [8],GI50 [9],TGI [9],GI50 [10],TGI [10],GI50 [11],TGI [11],GI50 [12],TGI [12],TGI [13]
NC(=O)c1ccccc1NC(=O)C(=O)Cc1nc2ccccc2[nH]c1=O,> 100 µM,> 100 µM,> 100 µM,> 100 µM,> 100 µM,–,–,–,–,–,–,–,–,–,–,–,–,–,–,–
Cc1cc(Nc2nc(-c3cccnc3)nc3ccccc23)n[nH]1,–,–,–,–,–,17.3 µM,> 100 µM,4.24 µM,> 100 µM,2.02 µM,> 75.4 µM,10.7 µM,> 100 µM,0.647 µM,> 100 µM,0.364 µM,3.74 µM,5.13 µM,> 92.7 µM,–
CC(=O)OC1=CC2=CC[C@H]3[C@@H]4CCC(=O)[C@@]4(C)CC(=O)[C@]3(S)[C@@]2(C)CC1,–,–,–,–,–,–,66.8 µM,–,> 100 µM,–,> 100 µM,–,> 100 µM,–,> 100 µM,–,74.6 µM,–,> 100 µM,–
NC1=NC(c2ccc(Cl)cc2)N(c2ccc(S(N)(=O)=O)cc2)C(N)=N1 (stereo unspecified),–,–,–,–,–,–,> 100 µM,–,> 100 µM,–,> 100 µM,–,> 100 µM,–,> 100 µM,–,> 100 µM,–,> 100 µM,–
S=c1[nH]nc(Cc2ccccc2)c(=S)[nH]1,> 100 µM,> 100 µM,> 100 µM,–,–,–,> 100 µM,–,96.9 µM,–,75.4 µM,–,> 100 µM,–,> 100 µM,–,> 100 µM,–,> 100 µM,> 100 µM
CN(C)c1ccc(/C=C/c2ccc(/C=C/c3ccc(N(C)C)cc3)cc2)cc1,> 100 µM,> 100 µM,> 100 µM,–,> 100 µM,–,–,–,–,–,–,–,–,–,–,–,–,–,–,–
Cc1cn(C2C=CC(CO)O2)c(=O)[nH]c1=O (stereo unspecified),–,–,–,–,–,–,> 1000 µM,–,> 1000 µM,–,> 1000 µM,–,> 1000 µM,–,> 1000 µM,–,> 1000 µM,–,> 1000 µM,–
CC(C)N1CCN(Cc2ccc3c(NNC(=O)c4ccccc4)nc4cc(F)ccc4n23)CC1,–,–,–,–,–,0.497 µM,2.48 µM,0.629 µM,12.1 µM,0.419 µM,11.7 µM,0.629 µM,13.3 µM,0.655 µM,15.1 µM,4.23 µM,26.9 µM,0.237 µM,4.53 µM,–
CCN(Cc1ccc(F)cc1)c1ccc(CO)c(C)c1,–,–,–,–,–,16.6 µM,35.7 µM,5.15 µM,24.5 µM,0.92 µM,6.95 µM,21.1 µM,59.2 µM,18 µM,45.5 µM,11.7 µM,64.8 µM,16.8 µM,53.5 µM,–
Nc1nc(N)c(C=Nc2ccc(Br)cc2)c(Nc2ccc(Br)cc2)n1,–,–,–,–,–,7.36 µM,28.3 µM,12.9 µM,25.5 µM,4.22 µM,18.4 µM,12.3 µM,28.6 µM,10.5 µM,27.6 µM,8.96 µM,26.8 µM,5.54 µM,26.3 µM,–
Nc1cc(O)ccc1N=Nc1ccc(-c2nc3ccccc3[nH]2)cc1,–,–,–,–,–,68.7 µM,> 100 µM,> 100 µM,> 100 µM,29.9 µM,> 100 µM,> 100 µM,> 100 µM,17.1 µM,73.5 µM,72.1 µM,> 100 µM,> 100 µM,> 100 µM,–
COc1ccccc1C1=C(Nc2ccccc2)C(=O)NC1=O,–,–,–,–,–,> 25 µM,> 25 µM,> 25 µM,> 25 µM,> 25 µM,> 25 µM,> 25 µM,> 25 µM,> 25 µM,> 25 µM,6.25 µM,> 25 µM,> 25 µM,> 25 µM,–
Cc1cc(-c2ccccc2)nc(Nc2nc3ccccc3o2)n1,> 100 µM,> 100 µM,–,> 100 µM,> 100 µM,–,–,–,–,–,–,–,–,–,–,–,–,–,–,> 100 µM
COC(=O)CCC1CCc2c(OC)ccc(OC)c2C1=O (stereo unspecified),> 100 µM,–,> 100 µM,> 100 µM,> 100 µM,–,–,–,–,–,–,–,–,–,–,–,–,–,–,–
Clc1ccc(-c2nnc(-c3cccc4ccccc34)o2)cc1Cl,–,–,–,–,–,–,> 100 µM,–,> 100 µM,–,> 100 µM,–,> 100 µM,–,> 100 µM,–,> 100 µM,–,> 100 µM,–
